Reference: paper PMC12029982, “The Mechanism of a Novel Mitochondrial-Targeted Icaritin Derivative in Regulating Apoptosis of BEL-7402 Cells Based on the SIRT3 and CypD-Mediated ROS/p38 MAPK Signaling Pathway” (Molecules, 2025)
Entries after “also recorded” stand apart in the source; their conditions may differ.

How the values were obtained:
HEK293 = experiment: MTT assay, cytotoxicity to normal cell line; format: cell-based, human
Method: (§1) Human cancer cell lines BEL-7402, A549, MCF-7, PC-3M, and normal renal cell line HEK293 were bought from the BeNa Culture Collection (Beijing, China). BEL7402, A549, and PC-3M were cultured in RPMI 1640 medium (Gibco, Carlsbad, CA, USA). MCF-7 and HEK293 were cultured in the DMEM medium (Gibco, CA, USA). The medium was supplemented with 10% fetal bovine serum (FBS) (CLARK, San Diego, CA, USA), 100 U/mL penicillin, and 0.1 mg/mL streptomycin (Beyotime, Nanjing, China). The cells were incubated in 5% CO2 at 37 °C.
(§2) The MTT assay was employed to assess the inhibitory effect of each compound on cell growth. A549, PC-3M, MCF-7, BEL-7402, and HEK293 cells in the logarithmic growth phase were seeded in 96-well culture plates at an inoculum density of 5 × 10^4 cells/mL. After overnight incubation at 37 °C in a 5% CO2 atmosphere, the cells fully adhered to the surface. Different concentrations of sample solutions (0, 3.125, 6.25, 12.5, 25, 50, 100 μmol/L) were added (100 μL) to treat the cells. After 48 h of drug treatment, 10 μL of a 5 mg/mL MTT solution was added to each well and incubated for 4 h at 37 °C. The supernatant was then discarded, and 150 μL of DMSO was added to dissolve the formazan. The mixture was shaken at room temperature for 15 min, and the absorbance (D) value was measured at 490 nm using a Microplate Reader (HBS-ScanY, Nanjing, China). The drug IC50 values were calculated using GraphPad Prism (v10.0). Each cell viability experiment was performed in triplicate.

SIRT3 = experiment: qRT-PCR; format: cell-based, human; details: vs blank control, BEL-7402, p < 0.05
Method: (§3) Total RNA was extracted from BEL-7402 cells before and after Mito-ICT-4 treatment using the Trizol method. The RNA was then reverse transcribed and used for quantitative real-time PCR (qRT-PCR) analysis. All gene sequences were obtained from the official website of NCBI (http://ncbi.nlm.nih.gov, accessed on 16 December 2023), and primers were designed and synthesized by Sangon Biotech. β-actin was used as an internal reference. To each well, 10 µL of 2 × SGExcel FastSYBR (Sangon Biotech, Shanghai, China) mixture was added, along with 0.4 µL each of forward and reverse primers (F/R), followed by 2 µL of cDNA. The volume was then adjusted to 20 µL with water. The qRT-PCR amplification procedure included the following steps: pre-denaturation at 95 °C for 3 min, denaturation at 95 °C for 15 s, and annealing at 60 °C for 45 s. A total of 45 cycles were performed. Fluorescence signals were collected from 60 °C to 95 °C using an ABI 7500 fluorescence quantitative PCR instrument (ABI, Waltham, MA, USA). Gene expression was calculated using the 2^−ΔΔCt method.

MKK6 = experiment: qRT-PCR; format: cell-based, human; details: vs blank control, BEL-7402, p < 0.05
Method: as §3

DDIT3 = experiment: qRT-PCR; format: cell-based, human; details: vs blank control, BEL-7402, p < 0.05
Method: as §3

P38 = experiment: qRT-PCR; format: cell-based, human; details: vs blank control, BEL-7402, p < 0.05
Method: as §3

CypD = experiment: qRT-PCR; format: cell-based, human; details: vs blank control, BEL-7402, p < 0.05
Method: as §3

BEL-7402 cells [1] = experiment: DAPI staining, apoptosis; format: cell-based, human; details: 0.625, 1.25, 2.5 μmol/L, 48 h
Method: BEL-7402 cells in the logarithmic growth phase were seeded in 12-well plates at a density of 1 × 10^5 cells/well. After overnight incubation, the cells were treated with different concentrations of Mito-ICT-4 (0.625, 1.25, and 2.5 μmol/L), and a control group was included. After 48 h of incubation, the cells were fixed with 4% histocyte fixative (Solarbio, Beijing, China) at room temperature for 15 min. After fixation, 500 μL of DAPI staining solution (Solarbio, Beijing, China) was added to each well and incubated at 37 °C for 20 min. The cells were then observed under an inverted fluorescence microscope (EVOS M5000, Waltham, MA, USA).

[2] = system: mitochondria of BEL-7402 cells; experiment: HPLC analysis of accumulation in mitochondria; format: cell-based, human; details: 10 μM
Method: BEL-7402 cells were cultured in 100 mm Petri dishes. When the cell density reached 90%, the cells were treated with different drugs, all at the same concentration (ICT and Mito-ICT-4 were both set at 10 μM). After 9 h of drug treatment, intracellular mitochondria were isolated from the different drug-treated groups using a mitochondrial isolation kit (Beyotime, Nanjing, China). The mitochondria were resuspended in 200 μL of phosphate-buffered saline (PBS), and an equal volume of anhydrous dichloromethane was added. Ultrasonic extraction was performed three times, and the lower organic phase was collected. Dichloromethane was removed, and the sample was resuspended in 200 μL of 0.1% formic acid in methanol. A 20 μL sample was analyzed and quantified by HPLC. HPLC analysis was conducted using an ALLTECH 26-201 (Jerome, CA, USA) with a flow rate of 1 mL/min. The stationary phase was Agilent ZORBAX SB-C18 (250 mm × 4.6 mm, 5 μm, Santa Clara, CA, USA), and the mobile phase consisted of methanol-0.1% formic acid in water (80:20).

BEL-7402 cells [3] = experiment: JC-1 staining, mitochondrial membrane potential; format: cell-based, human; details: JC-1, 0.625, 1.25, 2.5 μmol/L, 48 h
Method: Drug grouping and administration were performed as described in Section 2.5. After 48 h of incubation, 500 μL of JC-1 fluorescent dye (Beyotime, Nanjing, China) was added to each well. The cells were stained at 37 °C for 30 min, after which the dye was discarded. The cells were then washed three times with PBS and observed under an inverted fluorescence microscope.

BEL-7402 = experiment: MTT assay, antiproliferative activity; format: cell-based; details: Homo sapiens, 48 h drug exposure, mean ± SD
Method: as §1, §2

PC-3M = experiment: MTT assay, antiproliferative activity; format: cell-based; details: Homo sapiens, 48 h drug exposure, mean ± SD
Method: as §1, §2

MCF-7 = experiment: MTT assay, antiproliferative activity; format: cell-based; details: Homo sapiens, MCF7, 48 h drug exposure, mean ± SD
Method: as §1, §2

A549 = experiment: MTT assay, antiproliferative activity; format: cell-based; details: Homo sapiens, 48 h drug exposure, mean ± SD
Method: as §1, §2

accumulation in mitochondria relative to ICT ([2]; 9 h): approximately 2.5 times | IC50 (BEL-7402): 0.73 ± 0.06 µM | IC50 (PC-3M): 11.3 ± 1.55 µM | IC50 (MCF-7): 10.8 ± 1.2 µM | IC50 (A549): 5.15 ± 0.59 µM
Structure (SMILES): COc1ccc(-c2oc3c(CC=C(C)C)c(OC(=O)CCCCCCCCCC[P+](c4ccccc4)(c4ccccc4)c4ccccc4)cc(O)c3c(=O)c2O)cc1 [Mito-ICT-4]
IC50 (HEK293; Homo sapiens, HEK293, MTT, 48 h drug exposure, mean ± SD, normal cell line): 67.1 ± 2.09 µM | reduction compared to ICT (cytotoxicity in HEK293 cells) (HEK293; from IC50 values in HEK293): 55.4% | SIRT3 gene expression level (SIRT3): significantly downregulated | MKK6 gene expression level (MKK6): significantly downregulated | DDIT3 gene expression level (DDIT3): significantly upregulated | P38 gene expression level (P38): significantly downregulated | CypD gene expression level (CypD): significantly upregulated | nuclear morphology, DAPI staining (BEL-7402 cells [1]): nuclei exhibited crumpling and cleavage | fate after entering the mitochondria [2]: hydrolysis to ICT; also recorded: hydrolyzed to ICT | mitochondrial membrane potential (BEL-7402 cells [3]): reduction
